Reference: paper PMC12268802, “The herbicidal natural product phosphonothrixin is an inhibitor of the riboflavin biosynthetic enzyme L‐3,4‐dihydroxy‐2‐butanone‐4‐phosphate synthase” (Pest Management Science, 2025)

Columns and labels:
Zea mays (ZEAMX) = test: Herbicidal greenhouse screening, post-emergence; type: in vivo; conditions: visual, 3 weeks after spraying
Experimental: (§1) Seeds of mono‐ and dicotyledonous weed plants were sown in plastic pots of 7 cm diameter filled with a clayey silt soil substrate. The plants were maintained for the preparatory phase of germination and initial growth in the greenhouse under optimum growth conditions. Phosphonothrixin (1) was prepared for application as an emulsion concentrate and diluted together with 0.2% agrotin (a polyfunctional non‐ionic additive) in water corresponding to a spray volume of approximately 600 L ha^−1. At a growth stage of 2 to 4 true leaves the test plants were sprayed and then placed in the greenhouse for 3 weeks under optimum growth conditions. Subsequently, the effect of phosphonothrixin (1) was assessed visually relative to the untreated controls resulting in herbicidal effects (%) ranging from 0% (no effect = untreated control) to 100% (complete control = died‐off ).

[1] = test system: Cyperus esculentus (CYPES); test: Herbicidal greenhouse screening, post-emergence; type: in vivo; conditions: visual, 3 weeks after spraying
Experimental: as §1

[2] = test system: Abutilon theophrasti (ABUTH); test: Herbicidal greenhouse screening, post-emergence; type: in vivo; conditions: visual, 3 weeks after spraying
Experimental: as §1

Stellaria media (STEME) = test: Herbicidal greenhouse screening, post-emergence; type: in vivo; conditions: visual, 3 weeks after spraying
Experimental: as §1

[3] = test system: Matricaria inodora (MATIN); test: Herbicidal greenhouse screening, post-emergence; type: in vivo; conditions: visual, 3 weeks after spraying
Experimental: as §1

Viola tricolor (VIOTR) = test: Herbicidal greenhouse screening, post-emergence; type: in vivo; conditions: visual, 3 weeks after spraying
Experimental: as §1

[4] = test system: Echinochloa crus‐galli (ECHCG); test: Herbicidal greenhouse screening, post-emergence; type: in vivo; conditions: visual, 3 weeks after spraying
Experimental: as §1

[5] = test system: Pharbitis purpurea (PHBPU); test: Herbicidal greenhouse screening, post-emergence; type: in vivo; conditions: visual, 3 weeks after spraying
Experimental: as §1

[6] = test system: Brassica napus (winter rape, BRSNW); test: Herbicidal greenhouse screening, post-emergence; type: in vivo; conditions: visual, 3 weeks after spraying
Experimental: as §1

[7] = test system: Lolium multiflorum (LOLMU); test: Herbicidal greenhouse screening, post-emergence; type: in vivo; conditions: visual, 3 weeks after spraying
Experimental: as §1

Veronica persica (VERPE) = test: Herbicidal greenhouse screening, post-emergence; type: in vivo; conditions: visual, 3 weeks after spraying
Experimental: as §1

Avena fatua (AVEFA) = test: Herbicidal greenhouse screening, post-emergence; type: in vivo; conditions: visual, 3 weeks after spraying
Experimental: as §1

[8] = test system: Polygonum convolvulus (POLCO); test: Herbicidal greenhouse screening, post-emergence; type: in vivo; conditions: visual, 3 weeks after spraying
Experimental: as §1

Oryza sativa (ORYSA) = test: Herbicidal greenhouse screening, post-emergence; type: in vivo; conditions: visual, 3 weeks after spraying
Experimental: as §1

[9] = test system: Alopecurus myosuroides (ALOMY); test: Herbicidal greenhouse screening, post-emergence; type: in vivo; conditions: visual, 3 weeks after spraying
Experimental: as §1

[10] = test system: Triticum aestivum (spring wheat, TRZAS); test: Herbicidal greenhouse screening, post-emergence; type: in vivo; conditions: visual, 3 weeks after spraying
Experimental: as §1

[11] = test system: Amaranthus retroflexus (AMARE); test: Herbicidal greenhouse screening, post-emergence; type: in vivo; conditions: visual, 3 weeks after spraying
Experimental: as §1

Setaria viridis (SETVI) = test: Herbicidal greenhouse screening, post-emergence; type: in vivo; conditions: visual, 3 weeks after spraying
Experimental: as §1

AtDHBPS = biological target: T1, AtDHBPS (Arabidopsis thaliana, UniProt P47924); test: Thermal stability shift analysis; type: binding; conditions: 6.5 μM AtDHBPS
T1 construct: made in house; host or cells: Escherichia coli BL21(DE3)
T1 sequence (P47924 with tags, fused parts or gaps): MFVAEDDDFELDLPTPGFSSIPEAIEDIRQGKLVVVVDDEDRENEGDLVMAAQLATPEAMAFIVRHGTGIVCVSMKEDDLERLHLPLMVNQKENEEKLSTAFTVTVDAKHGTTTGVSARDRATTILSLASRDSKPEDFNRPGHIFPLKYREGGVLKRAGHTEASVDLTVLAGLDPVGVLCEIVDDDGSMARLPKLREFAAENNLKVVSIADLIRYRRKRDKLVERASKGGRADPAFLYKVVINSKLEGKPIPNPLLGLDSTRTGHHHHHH
Experimental: AtDHBPS melting curves were determined in 96‐well microtiter plates in a Roche Light Cycler 480. The assay mixture contained 50 mM HEPES pH 7.5, 75 mM NaCl, 2.5 mM MgCl2, 7.5x SYPRO Orange and 6.5 μM AtDHBPS in a total volume of 20 μL. A linear temperature gradient from 25 to 85 °C with a ramping of 3.25 °C min^−1 was applied. Melting temperatures were determined from plots of the first derivative of the fluorescence intensity versus temperature.

[12] = test system: mono‐ and dicotyledonous weed plants; test: Greenhouse test, post-emergence, phenotype of affected plants; type: in vivo
Experimental: as §1

[13] = test system: mono‐ and dicotyledonous weed plants; test: Greenhouse test, pre-emergence; type: in vivo; conditions: highest application rate tested; data not shown
[14] = test system: gramineous and broadleaf weeds; design: method as in PMID 7490218, PMID 7490219; conditions: cited from earlier work

CC(=O)C(O)(CO)CP(=O)(O)O (stereo not shown) [phosphonothrixin]
herbicidal effect rating, post-emergence (Zea mays (ZEAMX); 320 g/ha): 2 (‘2’ = 40–59% inhibition) | herbicidal effect rating, post-emergence (Zea mays (ZEAMX); 1280 g/ha): 3 (‘3’ = 60–79% inhibition) | herbicidal effect rating, post-emergence (Zea mays (ZEAMX); 5120 g/ha): 4 (‘4’ = 80–90% inhibition) | herbicidal effect rating, post-emergence ([1]; 320 g/ha): 2 (‘2’ = 40–59% inhibition) | herbicidal effect rating, post-emergence ([1]; 1280 g/ha): 3 (‘3’ = 60–79% inhibition) | herbicidal effect rating, post-emergence ([1]; 5120 g/ha): 4 (‘4’ = 80–90% inhibition) | herbicidal effect rating, post-emergence ([2]; 80 g/ha): 2 (‘2’ = 40–59% inhibition) | herbicidal effect rating, post-emergence ([2]; 320 g/ha): 3 (‘3’ = 60–79% inhibition) | herbicidal effect rating, post-emergence ([2]; 1280 g/ha): 4 (‘4’ = 80–90% inhibition) | herbicidal effect rating, post-emergence ([2]; 5120 g/ha): 4 (‘4’ = 80–90% inhibition) | herbicidal effect rating, post-emergence (Stellaria media (STEME); 80 g/ha): 3 (‘3’ = 60–79% inhibition) | herbicidal effect rating, post-emergence (Stellaria media (STEME); 320 g/ha): 3 (‘3’ = 60–79% inhibition) | herbicidal effect rating, post-emergence (Stellaria media (STEME); 1280 g/ha): 3 (‘3’ = 60–79% inhibition) | herbicidal effect rating, post-emergence (Stellaria media (STEME); 5120 g/ha): 4 (‘4’ = 80–90% inhibition) | herbicidal effect rating, post-emergence ([3]; 80 g/ha): 2 (‘2’ = 40–59% inhibition) | herbicidal effect rating, post-emergence ([3]; 320 g/ha): 3 (‘3’ = 60–79% inhibition) | herbicidal effect rating, post-emergence ([3]; 1280 g/ha): 4 (‘4’ = 80–90% inhibition) | herbicidal effect rating, post-emergence ([3]; 5120 g/ha): 4 (‘4’ = 80–90% inhibition) | herbicidal effect rating, post-emergence (Viola tricolor (VIOTR); 80 g/ha): 1 (‘1’ = 20–39% inhibition) | herbicidal effect rating, post-emergence (Viola tricolor (VIOTR); 320 g/ha): 3 (‘3’ = 60–79% inhibition) | herbicidal effect rating, post-emergence (Viola tricolor (VIOTR); 1280 g/ha): 4 (‘4’ = 80–90% inhibition) | herbicidal effect rating, post-emergence (Viola tricolor (VIOTR); 5120 g/ha): 4 (‘4’ = 80–90% inhibition) | herbicidal effect rating, post-emergence ([4]; 80 g/ha): 1 (‘1’ = 20–39% inhibition) | herbicidal effect rating, post-emergence ([4]; 320 g/ha): 2 (‘2’ = 40–59% inhibition) | herbicidal effect rating, post-emergence ([4]; 1280 g/ha): 4 (‘4’ = 80–90% inhibition) | herbicidal effect rating, post-emergence ([4]; 5120 g/ha): 4 (‘4’ = 80–90% inhibition) | herbicidal effect rating, post-emergence ([5]; 80 g/ha): 4 (‘4’ = 80–90% inhibition) | herbicidal effect rating, post-emergence ([5]; 320 g/ha): 4 (‘4’ = 80–90% inhibition) | herbicidal effect rating, post-emergence ([5]; 1280 g/ha): 4 (‘4’ = 80–90% inhibition) | herbicidal effect rating, post-emergence ([5]; 5120 g/ha): 4 (‘4’ = 80–90% inhibition) | herbicidal effect rating, post-emergence ([6]; 80 g/ha): 2 (‘2’ = 40–59% inhibition) | herbicidal effect rating, post-emergence ([6]; 320 g/ha): 3 (‘3’ = 60–79% inhibition) | herbicidal effect rating, post-emergence ([6]; 1280 g/ha): 4 (‘4’ = 80–90% inhibition) | herbicidal effect rating, post-emergence ([6]; 5120 g/ha): 4 (‘4’ = 80–90% inhibition) | herbicidal effect rating, post-emergence ([7]; 80 g/ha): 1 (‘1’ = 20–39% inhibition) | herbicidal effect rating, post-emergence ([7]; 320 g/ha): 3 (‘3’ = 60–79% inhibition) | herbicidal effect rating, post-emergence ([7]; 1280 g/ha): 4 (‘4’ = 80–90% inhibition) | herbicidal effect rating, post-emergence ([7]; 5120 g/ha): 4 (‘4’ = 80–90% inhibition) | herbicidal effect rating, post-emergence (Veronica persica (VERPE); 80 g/ha): 3 (‘3’ = 60–79% inhibition) | herbicidal effect rating, post-emergence (Veronica persica (VERPE); 320 g/ha): 3 (‘3’ = 60–79% inhibition) | herbicidal effect rating, post-emergence (Veronica persica (VERPE); 1280 g/ha): 4 (‘4’ = 80–90% inhibition) | herbicidal effect rating, post-emergence (Veronica persica (VERPE); 5120 g/ha): 4 (‘4’ = 80–90% inhibition) | herbicidal effect rating, post-emergence (Avena fatua (AVEFA); 80 g/ha): 2 (‘2’ = 40–59% inhibition) | herbicidal effect rating, post-emergence (Avena fatua (AVEFA); 320 g/ha): 3 (‘3’ = 60–79% inhibition) | herbicidal effect rating, post-emergence (Avena fatua (AVEFA); 1280 g/ha): 4 (‘4’ = 80–90% inhibition) | herbicidal effect rating, post-emergence (Avena fatua (AVEFA); 5120 g/ha): 4 (‘4’ = 80–90% inhibition) | herbicidal effect rating, post-emergence ([8]; 80 g/ha): 1 (‘1’ = 20–39% inhibition) | herbicidal effect rating, post-emergence ([8]; 320 g/ha): 1 (‘1’ = 20–39% inhibition) | herbicidal effect rating, post-emergence ([8]; 1280 g/ha): 1 (‘1’ = 20–39% inhibition) | herbicidal effect rating, post-emergence ([8]; 5120 g/ha): 2 (‘2’ = 40–59% inhibition) | herbicidal effect rating, post-emergence (Oryza sativa (ORYSA); 1280 g/ha): 1 (‘1’ = 20–39% inhibition) | herbicidal effect rating, post-emergence (Oryza sativa (ORYSA); 5120 g/ha): 2 (‘2’ = 40–59% inhibition) | herbicidal effect rating, post-emergence ([9]; 320 g/ha): 1 (‘1’ = 20–39% inhibition) | herbicidal effect rating, post-emergence ([9]; 1280 g/ha): 3 (‘3’ = 60–79% inhibition) | herbicidal effect rating, post-emergence ([9]; 5120 g/ha): 4 (‘4’ = 80–90% inhibition) | herbicidal effect rating, post-emergence ([10]; 320 g/ha): 1 (‘1’ = 20–39% inhibition) | herbicidal effect rating, post-emergence ([10]; 1280 g/ha): 4 (‘4’ = 80–90% inhibition) | herbicidal effect rating, post-emergence ([10]; 5120 g/ha): 4 (‘4’ = 80–90% inhibition) | herbicidal effect rating, post-emergence ([11]; 80 g/ha): 2 (‘2’ = 40–59% inhibition) | herbicidal effect rating, post-emergence ([11]; 320 g/ha): 3 (‘3’ = 60–79% inhibition) | herbicidal effect rating, post-emergence ([11]; 1280 g/ha): 4 (‘4’ = 80–90% inhibition) | herbicidal effect rating, post-emergence ([11]; 5120 g/ha): 4 (‘4’ = 80–90% inhibition) | herbicidal effect rating, post-emergence (Setaria viridis (SETVI); 80 g/ha): 4 (‘4’ = 80–90% inhibition) | herbicidal effect rating, post-emergence (Setaria viridis (SETVI); 320 g/ha): 4 (‘4’ = 80–90% inhibition) | herbicidal effect rating, post-emergence (Setaria viridis (SETVI); 1280 g/ha): 4 (‘4’ = 80–90% inhibition) | herbicidal effect rating, post-emergence (Setaria viridis (SETVI); 5120 g/ha): 4 (‘4’ = 80–90% inhibition) | ΔTm at 10 µM (AtDHBPS; compound 10 μM, read-out: shift of the melting point (deltaTm) of AtDHBPS): 4 °C | deltaTm(max) (AtDHBPS; from plot of deltaTm vs. concentration): 22.7 ± 0.6 °C | Kd (AtDHBPS; from plot of deltaTm vs. concentration, read-out: Kd-value for binding to AtDHBPS): 31.1 ± 2.8 µM | phenotype of affected plants [12]: bleaching phenotype | pre-emergence herbicidal activity [13]: failed to show any pre‐emergence activity | effect after foliar application [14]: chlorosis | effect on germination ([14]; gramineous and broadleaf weeds): significantly inhibited germination
